Source: patent US20240343694A1, “PYRIMIDINE DERIVATIVE, METHOD FOR PREPARING SAME, AND PHARMACEUTICAL COMPOSITION FOR PREVENTING OR TREATING CANCER COMPRISING SAME AS ACTIVE INGREDIENT” (KOREA RESERARCH INSTITUTE OF CHEMICAL TECHNOLOGY, priority 2021, published 2024)

Experiments:
Type in all cases: biochemical
Details in all cases: recombinant enzyme, 37° C. for 2 hours
[1] = target: EGFR del19 (Homo sapiens (Human), UniProt P00533, DEL746-750); test: HTRF inhibitory activity against EGFR mutant enzyme (EGFR del19)
Experimental: (§1) The activity of the compounds of the present invention against EGFR mutant enzymes was measured using the HTRF system purchased from Cisbio as follows. For an EGFR mutant enzyme, the EGFR del19 enzyme was a recombinant protein purchased from Carna Biosciences, and the EGFR A763_Y764insFHEA enzyme was a recombinant protein purchased from SignalChem, respectively.
(§2) The composition of the assay buffer used for activity measurement was 50 mM tris-HCl pH 7.5, 100 mM NaCl, 7.5 mM MgCl2, 3 mM KCl, 0.01% tween 20, 0.1% BSA, and 1 mM DTT. An enzymatic reaction was performed using a peptide substrate labeled with ATP at a concentration of […] and biotin at a concentration of […]. The analysis of the inhibitory effect of the compounds on EGFR activity was performed according to the following method. • Component 1:4 μL of EGFR mutant enzyme • Component 2:2 μL of compound solution • Component 3:4 μL of ATP and a biotin labeled peptide
(§3) The enzyme reaction begins by first mixing component 1 and component 2 and then adding component 3 thereto. After the reaction at 37° C. for 2 hours, […] of a measurement solution consisting of streptavidin-XL665 and a europium-labeled anti-phosphotyrosine antibody purchased from Cisbio was added to the enzyme reaction solution and reacted at room temperature for 1 hour. Finally, the ratio of fluorescence values at 615 nm and 665 nm was measured using Perkin-Elmer's Envision instrument to calculate enzyme activity and confirm the inhibitory ability of the compounds. The measured values at 7 compound concentrations were analyzed using the Prism program (version 5.01, Graphpad Software, Inc.), and the IC50 (μM) values, which are measures of the compounds' inhibitory activity, were calculated.

[2] = target: EGFR A763_Y764insFHEA (Homo sapiens (Human), UniProt P00533, INS763FHEA); test: HTRF inhibitory activity against EGFR mutant enzyme (EGFR A763_Y764insFHEA)
Experimental: as §1, §2, §3

[3] = target: HER2 A775_G776insYVMA (Homo sapiens (Human), UniProt P04626, INS775YVMA); test: HTRF inhibitory activity against HER2 mutant enzyme
Experimental: The activity of the compounds of the present invention against HER mutant enzymes was measured using the HTRF system purchased by Cisbio as follows. As a HER2 mutant enzyme, the HER2 A775_G776insYVMA mutant enzyme was used by purchasing a recombinant protein provided by Carna Biosciences.
as §2, with “mM DTT. In addition thereto, the enzymatic reaction” for “mM DTT. An enzymatic reaction”, “of the activity inhibitory effect” for “of the inhibitory effect”, “compounds on HER2 A775_G776insYVMA mutation was performed” for “compounds on EGFR activity was performed”, “μL of HER2 A775_G776insYVMA mutant enzyme” for “μL of EGFR mutant enzyme”
as §3, with “Finally, the ratio of fluorescence values at 615 nm and 665 nm was measured using Perkin-Elmer's Envision instrument to calculate enzyme activity and confirm the inhibitory ability of the compounds.” left out, “ability,” for “activity,”

Chain of EGFR A763_Y764insFHEA (P00533 other isoform, or with tags, fused parts or gaps del 1-694/ins FHEA behind 763 limits assumed): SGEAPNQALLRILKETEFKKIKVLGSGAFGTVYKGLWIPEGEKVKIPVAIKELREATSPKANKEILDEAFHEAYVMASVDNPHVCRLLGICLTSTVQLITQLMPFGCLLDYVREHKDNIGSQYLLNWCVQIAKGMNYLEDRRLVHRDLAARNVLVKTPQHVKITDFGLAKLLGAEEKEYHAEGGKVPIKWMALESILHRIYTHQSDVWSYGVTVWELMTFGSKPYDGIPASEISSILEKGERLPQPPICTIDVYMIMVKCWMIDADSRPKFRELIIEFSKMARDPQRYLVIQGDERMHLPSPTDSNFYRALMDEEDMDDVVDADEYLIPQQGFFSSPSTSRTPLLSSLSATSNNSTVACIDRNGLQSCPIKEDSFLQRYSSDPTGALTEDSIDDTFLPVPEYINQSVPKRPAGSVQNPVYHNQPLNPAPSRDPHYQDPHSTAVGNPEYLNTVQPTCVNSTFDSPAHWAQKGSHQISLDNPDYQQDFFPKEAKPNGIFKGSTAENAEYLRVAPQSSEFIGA
Chain of HER2 A775_G776insYVMA (P04626 other isoform, or with tags, fused parts or gaps del 1-675/ins YVMA behind 775 limits assumed): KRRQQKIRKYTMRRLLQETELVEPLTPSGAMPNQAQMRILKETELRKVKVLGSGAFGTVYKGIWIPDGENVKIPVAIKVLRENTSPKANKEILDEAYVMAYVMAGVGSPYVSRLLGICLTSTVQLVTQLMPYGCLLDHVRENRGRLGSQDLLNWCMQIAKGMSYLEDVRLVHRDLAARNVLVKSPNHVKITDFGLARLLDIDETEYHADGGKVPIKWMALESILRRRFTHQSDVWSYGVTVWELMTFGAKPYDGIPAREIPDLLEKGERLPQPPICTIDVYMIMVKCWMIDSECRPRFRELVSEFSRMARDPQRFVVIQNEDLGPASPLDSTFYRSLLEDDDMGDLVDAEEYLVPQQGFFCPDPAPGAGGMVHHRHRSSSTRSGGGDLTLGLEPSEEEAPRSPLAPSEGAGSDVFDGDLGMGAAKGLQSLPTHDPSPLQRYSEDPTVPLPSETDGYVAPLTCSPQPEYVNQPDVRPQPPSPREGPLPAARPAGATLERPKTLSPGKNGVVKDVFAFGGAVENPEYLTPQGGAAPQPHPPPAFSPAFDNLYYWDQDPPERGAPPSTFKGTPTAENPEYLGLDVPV
Chain of EGFR del19 (P00533 other isoform, or with tags, fused parts or gaps del 1-668/del 746-750 limits assumed): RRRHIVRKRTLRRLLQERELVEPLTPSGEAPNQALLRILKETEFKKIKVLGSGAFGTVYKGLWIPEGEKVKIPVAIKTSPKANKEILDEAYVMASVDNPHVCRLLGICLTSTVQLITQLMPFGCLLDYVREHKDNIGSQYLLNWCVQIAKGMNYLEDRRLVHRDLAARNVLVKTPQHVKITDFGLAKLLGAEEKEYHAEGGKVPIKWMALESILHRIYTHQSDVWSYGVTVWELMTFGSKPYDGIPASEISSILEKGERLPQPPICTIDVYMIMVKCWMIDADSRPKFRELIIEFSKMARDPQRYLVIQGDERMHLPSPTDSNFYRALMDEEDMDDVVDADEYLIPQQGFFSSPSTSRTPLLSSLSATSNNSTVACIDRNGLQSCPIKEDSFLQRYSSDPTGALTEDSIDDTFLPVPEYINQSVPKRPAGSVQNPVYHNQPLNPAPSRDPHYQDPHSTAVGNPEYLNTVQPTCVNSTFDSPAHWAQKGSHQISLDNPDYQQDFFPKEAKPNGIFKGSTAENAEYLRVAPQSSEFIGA

Compound	IC50 [1] [nM]	IC50 [2] [nM]	IC50 [3] [nM]
C=CC(=O)Nc1cc(Nc2ncc(Cl)c(Nc3cccc4c3N(S(=O)(=O)CC)CC4)n2)c(OC)cc1N(C)CCN1CCCC1 [Example 75, N-(5-((5-chloro-4-((1-(ethylsulfonyl)indolin-7-yl)amino)pyrimidin-2-yl)amino)-4-methoxy-2-(methyl(2-(pyrrolidin-1-yl)ethyl)amino)phenyl)acrylamide]	< 1	< 1	3
C=CC(=O)Nc1cc(Nc2ncc(Cl)c(Nc3cccc4c3N(S(C)(=O)=O)CC4)n2)c(OC)cc1N(C)CCN1CCN(C)CC1 [Example 73, N-(5-((5-chloro-4-((1-(methylsulfonyl)indolin-7-yl)amino)pyrimidin-2-yl)amino)-4-methoxy-2-(methyl(2-(4-methylpiperazin-1-yl)ethyl)amino)phenyl)acrylamide]	< 1	< 1	5
C=CC(=O)Nc1cc(Nc2ncc(C)c(Nc3ccccc3NS(=O)(=O)CC)n2)c(OC)cc1N(C)CCN(C)C [Example 19, N-(2-((2-(dimethylamino)ethyl)(methyl)amino)-5-((4-((2-(ethylsulfonamido)phenyl)amino)-5-methylpyrimidin-2-yl)amino)-4-methoxyphenyl)acrylamide]	< 1	3	34
C=CC(=O)Nc1cc(Nc2ncc(F)c(Nc3ccccc3NS(=O)(=O)CCC)n2)c(OC)cc1N(C)CCN(C)C [Example 13, N-(2-((2-(dimethylamino)ethyl)(methyl)amino)-5-((5-fluoro-4-((2-(propylsulfonamido)phenyl)amino)pyrimidin-2-yl)amino)-4-methoxyphenyl)acrylamide]	2	10	140
C=CC(=O)Nc1cc(Nc2ncc(Cl)c(Nc3ccc4nccnc4c3NS(C)(=O)=O)n2)c(OC)cc1N(C)CCN(C)C [Example 69]	< 1	< 1	6
C=CC(=O)Nc1cc(Nc2ncc(Cl)c(Nc3cccc(Cl)c3NS(C)(=O)=O)n2)c(OC)cc1N(C)CCN(C)C [Example 34, N-(5-((5-chloro-4-((3-chloro-2-(methylsulfonamido)phenyl)amino)pyrimidin-2-yl)amino)-2-((2-(dimethylamino)ethyl)(methyl)amino)-4-methoxyphenyl)acrylamide]	< 1	1	20
C=CC(=O)Nc1cc(Nc2ncc(Cl)c(Nc3cccc4c3N(S(C)(=O)=O)CC4)n2)c(OC)cc1OCCN1CCOCC1 [Example 77, N-(5-((5-chloro-4-((1-(methylsulfonyl)indolin-7-yl)amino)pyrimidin-2-yl)amino)-4-methoxy-2-(2-morpholinoethoxy)phenyl)acrylamide]	< 1	< 1	2
C=C(F)C(=O)Nc1cc(Nc2ncc(Cl)c(Nc3cccc4c3N(S(C)(=O)=O)CCC4)n2)c(OC)cc1N(C)CCN(C)C [Example 54, N-(5-((5-chloro-4-((1-(methylsulfonyl)-1,2,3,4-tetrahydroquinolin-8-yl)amino)pyrimidin-2-yl)amino)-2-((2-(dimethylamino)ethyl)(methyl)amino)-4-methoxyphenyl)-2-fluoroacrylamide]	< 1	< 1	10
C=CC(=O)Nc1cc(Nc2nccc(Nc3ccccc3NS(=O)(=O)CC)n2)c(OC)cc1N(C)CCN(C)C [Example 10, N-(2-((2-(dimethylamino)ethyl)(methyl)amino)-5-((4-((2-(ethylsulfonamido)phenyl)amino)pyrimidin-2-yl)amino)-4-methoxyphenyl)acrylamide]	< 1	10	440
C=CC(=O)Nc1cc(Nc2ncc(F)c(Nc3ccccc3NS(=O)(=O)CC)n2)c(OC)cc1N(C)CCN(C)C [Example 12, N-(2-((2-(dimethylamino)ethyl)(methyl)amino)-5-((4-((2-(ethylsulfonamido)phenyl)amino)-5-fluoropyrimidin-2-yl)amino)-4-methoxyphenyl)acrylamide]	< 1	4	69
C=CC(=O)Nc1cc(Nc2ncc(F)c(Nc3ccccc3NS(=O)(=O)c3ccc(C)cc3)n2)c(OC)cc1N(C)CCN(C)C [Example 15, N-(2-((2-(dimethylamino)ethyl)(methyl)amino)-5-((5-fluoro-4-((2-((4-methylphenyl)sulfonamido)phenyl)amino)pyrimidin-2-yl)amino)-4-methoxyphenyl)acrylamide]	10	10	1200
C=CC(=O)Nc1cc(Nc2ncc(C)c(Nc3ccccc3NS(=O)(=O)CCC)n2)c(OC)cc1N(C)CCN(C)C [Example 18, N-(2-((2-(dimethylamino)ethyl)(methyl)amino)-4-methoxy-5-((5-methyl-4-((2-(propylsulfonamido)phenyl)amino)pyrimidin-2-yl)amino)phenyl)acrylamide]	< 1	7	110
C=CC(=O)Nc1cc(Nc2ncc(F)c(Nc3ccccc3NS(=O)(=O)c3ccccc3)n2)c(OC)cc1N(C)CCN(C)C [Example 14, N-(2-((2-(dimethylamino)ethyl)(methyl)amino)-5-((5-fluoro-4-((2-(phenylsulfonamido)phenyl)amino)pyrimidin-2-yl)amino)-4-methoxyphenyl)acrylamide]	1	2	410
C=CC(=O)Nc1cc(Nc2ncc(Cl)c(Nc3ccccc3N3CCCS3(=O)=O)n2)c(OC)cc1N(C)CCN(C)C [Example 70, N-(5-((5-chloro-4-((2-(1,1-dioxidoisothiazolidin-2-yl)phenyl)amino)pyrimidin-2-yl)amino)-2-((2-(dimethylamino)ethyl)(methyl)amino)-4-methoxyphenyl)acrylamide]	< 1	4	33
C=CC(=O)Nc1cc(Nc2ncc(C(=O)OC)c(Nc3cccc4c3N(S(C)(=O)=O)CCC4)n2)c(OC)cc1N(C)CCN(C)C [Example 51, methyl 2-((5-acrylamido-4-((2-(dimethylamino)ethyl)(methyl)amino)-2-methoxyphenyl)amino)-4-((1-(methylsulfonyl)-1,2,3,4-tetrahydroquinolin-8-yl)amino)pyrimidin-5-carboxylate]	< 1	< 1	30
COc1cc(N2CCOCC2)c(NC(=O)/C=C/CN(C)C)cc1Nc1ncc(Cl)c(Nc2ccccc2NS(C)(=O)=O)n1 [Example 26, (E)-N-(5-((5-chloro-4-((2-(methylsulfonamido)phenyl)amino)pyrimidin-2-yl)amino)-4-methoxy-2-morpholinophenyl)-4-(dimethylamino)buten-2-amide]	4	200	80
C=CC(=O)Nc1cc(Nc2ncc(Cl)c(Nc3ccccc3N3CCCCS3(=O)=O)n2)c(OC)cc1N(C)CCN(C)C [Example 71, N-(5-((5-chloro-4-((2-(1,1-dioxido-1,2-thiazinan-2-yl)phenyl)amino)pyrimidin-2-yl)amino)-2-((2-(dimethylamino)ethyl)(methyl)amino)-4-methoxyphenyl)acrylamide]	< 1	5	61
C=CC(=O)Nc1cc(Nc2ncc(Cl)c(Nc3cccc4c3N(S(C)(=O)=O)CC4)n2)c(OC)cc1OCCN1CCCCC1 [Example 78, N-(5-((5-chloro-4-((1-(methylsulfonyl)indolin-7-yl)amino)pyrimidin-2-yl)amino)-4-methoxy-2-(2-(piperidin-1-yl)ethoxy)phenyl)acrylamide]	< 1	< 1	3
